Consider three compounds from patent publication US8563248B2, “Compositions and methods for detection of colorectal cancer” (priority 2005, dated 2013).

One series concerns IBABP-L mRNA. The series is described as follows: Regulation of IBABP-L expression in Caco-2 cells, quantitative RT-PCR. The series is classed as cell-based, human. As to conditions: 24 h, normalized to ARPP0. Here is the method:
(§1) The expression of IBABP-L and IBABP was measured by quantitative RT-PCR. The mRNA copy number of each variant is normalized to the expression the housekeeping gene ARPP0. Values in the figure represent the average of three experiments with each replicate performed in duplicate.
(§2) To determine the relative expression levels of IBABP-L and IBABP, a two-step quantitative RT-PCR procedure was used. In the first step, complementary DNA (cDNA) was synthesized from total RNA. […] In the second step, quantitative PCT (QPCR) was carried out on a Mx 3000P Real-Time PCR System (Stratagene, La Jolla, Calif.) using a solution containing diluted cDNA (1:20; 2.0 μl), 1×SYBR Green PCR Master Mix (Applied Biosystems, Foster City, Calif.), and primers for IBABP-L, IBABP, or ARPP0 (0.25 μM). […]
(§3) Caco-2 cells were seeded in six-well plates (Falcon) at 2×10^5 cells/well. […] Cells were harvested, cellular RNA was isolated using the RNeasy Mini Kit (Qiagen) according to manufacturer instruction, and expression of IBABP variants was determined by QPCR as described above. […]

The subject of the next series is IBABP mRNA. The experiment in a line: Regulation of IBABP expression in Caco-2 cells, quantitative RT-PCR. As to conditions: 100 nM, 24 h, normalized to ARPP0. The series is classed as cell-based, human. As to the method:
as §1, §2, §3

For another series, the target named is T1, BAR (Homo sapiens, UniProt Q96RI1).
T1 sequence (Q96RI1 1-486): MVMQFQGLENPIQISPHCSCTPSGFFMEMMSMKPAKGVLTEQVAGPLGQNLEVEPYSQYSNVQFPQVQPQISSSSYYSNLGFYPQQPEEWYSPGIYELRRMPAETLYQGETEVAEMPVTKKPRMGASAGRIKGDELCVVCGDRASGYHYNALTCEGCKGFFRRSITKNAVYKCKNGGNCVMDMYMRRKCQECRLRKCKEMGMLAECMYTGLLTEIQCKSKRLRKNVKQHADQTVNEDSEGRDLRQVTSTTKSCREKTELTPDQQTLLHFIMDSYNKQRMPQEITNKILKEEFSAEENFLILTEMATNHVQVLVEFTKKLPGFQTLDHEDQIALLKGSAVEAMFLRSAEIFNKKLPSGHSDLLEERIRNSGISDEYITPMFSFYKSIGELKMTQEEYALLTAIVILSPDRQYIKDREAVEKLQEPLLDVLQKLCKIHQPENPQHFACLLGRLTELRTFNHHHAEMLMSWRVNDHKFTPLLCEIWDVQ
As to conditions: gene-selective BAR modulator; cited from earlier work.

Regarding `CC1=C(/C=C/C(C)=C\C=C\C(C)=C\C(=O)O)C(C)(C)CCC1` [9cRA, 9-cis-retinoic acid], the “effect on expression of IBABP-L” value in the series with IBABP-L mRNA (100 nM) is listed as “without effect”. The “effect on expression of IBABP” value in the series on IBABP mRNA is “up-regulated”.
With `CCCCCCOc1c(\C(C)=C/C=C/C(C)=C/C(=O)O)cc(C(C)C)cc1C(C)C` [AGN34], on BAR, the “action on CYP7A1” value is “agonist”, the “action on IBABP” value is reported as “antagonist” and the “action on SHP” value is reported as “neutral”.
In the case of `C[C@H](CCC(=O)O)[C@H]1CC[C@H]2[C@@H]3[C@H](O)C[C@@H]4C[C@H](O)CC[C@]4(C)[C@H]3CC[C@]12C` [CDCA, chenodeoxycholic acid], the “effect on expression of IBABP-L” value with IBABP-L mRNA (100 μM) is reported as “without effect”.
